From US20090247646A1, “USE OF RESVERATROL AND DERIVATIVES THEREOF FOR PROMOTING THE WELLNESS STATE IN MAMMALS” (priority 2006, published 2009)

System: gene expression in heart tissue
Assay: Genome-wide gene expression in heart tissue of old mice fed a resveratrol-supplemented diet (Affymetrix Mouse Genome 430 2.0 array)
Format: in vivo

Measured: Effect of resveratrol on changeing gene expression from old to young profile

Oc1ccc(/C=C/c2cc(O)cc(O)c2)cc1 [resveratrol, 3,4′,5-Trihydroxy-trans-stilbene]
>100%: 1415741_at TPA regulated locus | 1416113_at FK506 binding protein 8 | 1416167_at peroxiredoxin 4 | 1416647_at branched chain ketoacid dehydrogenase E1, alpha polypeptide | 1416648_at dynein, cytoplasmic, heavy chain 1 | 1416698_a_at CDC28 protein kinase 1 | 1416800_at transient receptor potential cation channel, subfamily M, member 7 | 1417149_at procollagen-proline, 2-oxoglutarate 4-dioxygenase (proline 4-hydroxylase), alpha II polypeptide | 1417502_at transmembrane 4 superfamily member 2 | 1417628_at suppressor of Ty 6 homolog (S. cerevisiae) | 1417947_at proliferating cell nuclear antigen | 1417968_a_at methyl-CpG binding domain protein 1 | 1417982_at insulin induced gene 2 | 1418128_at adenylate cyclase 6 | 1418468_at annexin A11 | 1418509_at carbonyl reductase 2 | 1418524_at pericentriolar material 1 | 1418595_at plasma membrane associated protein, S3-12 | 1418648_at EGL nine homolog 3 (C. elegans) | 1418663_at multiple PDZ domain protein | 1418706_at solute carrier family 38, member 3 | 1419034_at casein kinase II, alpha 1 polypeptide | 1419220_at cardiomyopathy associated 1 | 1419665_a_at nuclear protein 1 | 1420620_a_at ring finger protein 13 | 1420727_a_at trimethyllysine hydroxylase, epsilon | 1420834_at vesicle-associated membrane protein 2 | 1420896_at synaptosomal-associated protein 23 | 1420899_at RAB18, member RAS oncogene family | 1420920_a_at ADP-ribosylation factor 1 | 1421468_at potassium inwardly-rectifying channel, subfamily J, member 3 | 1422452_at Bcl2-associated athanogene 3 | 1422799_at HLA-B associated transcript 2 | 1423040_at basic leucine zipper and W2 domains 1 | 1423126_at ATPase, Na+/K+ transporting, beta 3 polypeptide | 1423220_at eukaryotic translation initiation factor 4E | 1423474_at topoisomerase (DNA) I | 1423607_at lumican | 1423845_at expressed sequence AI481750 | 1423898_a_at gene trap locus 6 | 1424164_at mitochondrial ribosomal protein L50 | 1425022_at ubiquitin specific protease 3 | 1425281_a_at delta sleep inducing peptide, immunoreactor | 1425507_at ADP-ribosylation factor related protein 1 | 1425977_a_at serine/threonine kinase 2 | 1426440_at dehydrogenase/reductase (SDR family) member 7 | 1426613_a_at U2 small nuclear ribonucleoprotein B | 1427006_at guanine nucleotide releasing factor 2 | 1427036_a_at eukaryotic translation initiation factor 4, gamma 1 | 1427045_at synaptopodin | 1427245_at ADP-ribosylation factor GTPase activating protein 1 | 1427874_at zinc finger protein 313 | 1429186_a_at cytidine and dCMP deaminase domain containing 1 | 1431054_at LSM6 homolog, U6 small nuclear RNA associated (S. cerevisiae) | 1433558_at disabled homolog 2 (Drosophila) interacting protein | 1433811_at myeloid/lymphoid or mixed lineage-leukemia translocation to 6 homolog (Drosophila) | 1433890_a_at HLA-B-associated transcript 3 | 1433904_at BCL2-antagonist/killer 1 | 1434930_at two pore channel 1 | 1434944_at dystrophia myotonica kinase, B15 | 1435472_at kringle containing transmembrane protein | 1435658_at solute carrier family 27 (fatty acid transporter), member 1 | 1435664_at zinc finger protein 397 | 1436960_at bromodomain containing 3 | 1437892_at Mus musculus transcribed sequences | 1444089_at spectrin beta 2 | 1445186_at stanniocalcin 2 | 1448119_at 2,3-bisphosphoglycerate mutase | 1448185_at homocysteine-inducible, endoplasmic reticulum stress-inducible, ubiquitin-like domain member 1 | 1448277_at polymerase (DNA directed), delta 2, regulatory subunit | 1448307_at Down syndrome critical region homolog 2 (human) | 1448424_at frizzled-related protein | 1448703_at LSM8 homolog, U6 small nuclear RNA associated (S. cerevisiae)
